Experiment [1] is described as follows: In vitro H2O hydrolysis and oxygen evolution catalyzed by LEAT protein under light. Format: biochemical. The arrangement: key to O2 evolution activity: +: similar O2 evolution activity as that of YFP; ++: higher O2 evolution activity than that of YFP by at least one order of magnitude; weak: lower activity than that of YFP by at least one order of magnitude. Particulars: for O2 evolution activity: water hydrolysis and O2 evolution under light, relative to YFP. How it is done: 1.85 ml of 50 mM phosphate buffer (pH6.5) was added in the reaction vessel of Clark-type oxygen electrode, then LEAT proteins (at a final concentration of 0.02-1 μg/ml) and 400 μM 2,3,5-trimethyl-1,4-benzoquinone (TMBQ) or other quinones were sequentially added into the buffer in dark. The oxygen evolution rate was measured under the light with corresponding excitation wave length for LEAT proteins and light intensity at 1-2 μmol m^−2 s^−1.

Experiment [2] can be described thus: Electron donation by pre-illuminated LEAT protein (NAD+/NADP+ reduction). The format is biochemical. As for the experimental part: FIG. 1. The effects of light on NAD^+ or NAPD^+ reduction by YFP.
It was reported that proteins such as GFP can function as electron donor to reduce the oxidized small compounds such as NAD^+, potassium ferricyanide, and some proteins such as cytochrome c, and FAD-containing proteins (Bogdanov A. M. et al, 2009, Nature Chemical Biology. 5:459-461), The invertors used E. coli to express and purify recombinant proteins. […] Quinone reduction under light was analyzed by monitoring the decrease of absorption at 436 nm.

A further experiment concerns Brassica. Kind of experiment: Growth, biomass and yield of transgenic Brassica. The format is in vivo, Brassica napus L. Particulars: T1 transgenic Brassica, vegetative stage. An excerpt: FIG. 14. (A) WT, empty vector control (pHB) and mCherry transgenic Brassica (L1-L3) were germinated and grown for one week in the phytotron under white light (PPFD:250 μmol m^−2s^−1). Then the plants were moved and grown under white light, green light (PFD: 60 μmol m^−2s^−1) or red+blue light (red light PFD; 60 μmol m^−2s^−1, blue light PFD; 10 μmol m^−2s^−1) for another 3 weeks and photos were taken, (B) Comparison of the fresh weights and dry weights of WT and mCherry transgenic Brassica grown under white light, green light or red+blue light for four weeks. Values in the figures are means±SD, for WT, n=10, for transgenic plant transformed with empty vector control pHB and mCherry, data were the averages of three independent lines and 10 plants for each line. **p≦0.01. (C) Net photosynthetic rate of WT and mCherry transgenic Brassica measured under different light qualities. Nine-week-old WT and mCherry transgenic Brassica grown in the phytotron (PPFD: 250 μmol m^−2s^−1) were transferred and treated with different qualities of light for 4 days and net photosynthetic rate was measured. (D) Net photosynthetic rate of WT and mCherry transgenic Brassica grow in the natural field measured under different PPFD as light source. Net photosynthetic rate was measured in situ between 10:00 am and 12:00 pm. […] FIG. 15. (A) Measurement of the fresh weight and dry weight per plant of 7-week-old WT and mCherry transgenic Brassica plants grown in the natural field conditions. Values in the figures are means±SD, n=10. *p≦0.05, **p≦0.01. (B) Comparison of the plant size, silique size, seed size, grain yield per plant and 1000-seed weight at the harvesting time. Values in the figures are means±SD, n=10. *p≦0.05, **p≦0.01. Wild type (WT), transgenic Brassica with empty vector (pHB) and mCherry transgenic Brassica (L1-L3) were germinated in the phytotron under white light (light intensity: 250 μmol m^−2s^−1) for 1 week. Then the plants were transferred and continued to grow under white light, green light (light intensity: 60 μmol m^−2s^−1), red+blue light (intensity of red light: 60 μmol m^−2s^−1; intensity of blue light: 10 μmol m^−2s^−1). The […] were taken three weeks after transfer.

On to “YFP: yellow fluorescent protein, amino acid sequence SEQ ID NO: 8”, for which, in experiment [1] (TMBQ substituted with DQ or UQ), the “water photohydrolysis and O2 evolution activity under light” value is “does not have water photohydrolysis and O2 evolution activity”. For the same substance, the “activity of water hydrolysis among the quinones tested (order)” value in experiment [1] (different quinones, under light) is reported as “TMBQ>DMBQ2>MBQ>DMBQ1”. The O2 evolution activity entry in experiment [1] is reported as “+”. For the same substance, the “function as electron donor under light” value in experiment [2] was “cannot continuously provide electrons under light”.
For the substance “eqFP611: fluorescent protein from Entacmaea quadricolor (AY130757), SEQ ID NO: 30”, the O2 evolution activity entry in experiment [1] was “+”.
As to “mCherrymu3: mCherry mutant S151C S152C K167M, SEQ ID NO: 22”, in the experiment with Brassica, the “plant growth vs WT” value is “grow better than WT”. Moreover, the “O2 evolution rate, increase” value in experiment [1] (vs non-mutated protein, under light) is on record as 6 folds.
Turning to “mCherrymu4: mCherry mutant S151C S152C K167M I202A, SEQ ID NO: 24”, the “plant growth vs WT” value in the experiment with Brassica was “grow better than WT”.
In the case of “mCherrymu5: mCherry mutant S151C S152C H166N K167M I202A, SEQ ID NO: 26”, the “plant growth vs WT” value in the experiment on Brassica is reported as “grow better than WT”.

Source of the values: US20170037425A1, “METHOD FOR IMPROVING PLANT TRAIT” (SHANGHAI INSTITUTES FOR BIOLOGICAL SCIENCES, CHINESE …, priority 2012, published 2017).
